Source: the supplement of paper PMC11003180

How the values were obtained:
Experiment in all cases: drug sensitivity score (DSS) from 5-dose viability curve (DSS (area-based score, 0 = no response)); higher = more sensitive (stronger viability inhibition); extreme values may be limits of the assay
[1] = test system: MDCK wild-type - doxycycline; settings: doxycycline: none; 72 h
Method in brief: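 Drug sensitivity scores came from Breeze pipeline dose-response fits of CellTiter-Glo luminescence, scaled per plate between vehicle and positive controls. The assay used parental MDCK cells without doxycycline at 2000 cells/well, exposed for 72 h to 528 oncology drugs at five doses (1-10,000 nM).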

[2] = test system: MDCK wild-type + doxycycline; settings: doxycycline: 10 ng/mL; 72 h
Method in brief: (§1)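 Two MDCK lines, parental and doxycycline-inducible, received doxycycline at 10 ng/mL in the medium before being plated at 2000 cells/well onto a pre-spotted 384-well oncology library of 528 drugs at five doses (1-10,000 nM). Incubation lasted 72 h at 37 °C. Viability was read by CellTiter-Glo luminescence, scaled per plate between vehicle and positive controls, and converted to drug sensitivity scores through Breeze curve fitting.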

[3] = test system: MDCK p60AmotL2-inducible + doxycycline (p60AmotL2 expressing); settings: doxycycline: 10 ng/mL; 72 h
Method in brief: as §1

Structure (SMILES)	drug sensitivity score [1]	drug sensitivity score [2]	drug sensitivity score [3]
CCn1cc(-c2ccnc3[nH]c(-c4cccc(CN(C)C)c4)cc23)c(-c2ccc(NC(=O)N(C)C)cc2)n1	0.4	1.9	7.1
Cc1cn(-c2cc(NC(=O)c3ccc(C)c(Nc4nccc(-c5cccnc5)n4)c3)cc(C(F)(F)F)c2)cn1 [Nilotinib]	0	0	0
Nc1ccccc1NC(=O)c1ccc(CNC(=O)OCc2cccnc2)cc1 [Entinostat]	5.4	5.5	4.4
CCc1nc(C(N)=O)c(Nc2ccc(N3CCC(N4CCN(C)CC4)CC3)c(OC)c2)nc1NC1CCOCC1 [Gilteritinib]	0.9	0.1	1
Cc1nc(NC(=O)N2CCC[C@H]2C(N)=O)sc1-c1ccnc(C(C)(C)C(F)(F)F)c1 [Alpelisib]	0.7	0	1.6
C=C(c1ccc(C(=O)O)cc1)c1cc2c(cc1C)C(C)(C)CCC2(C)C [Bexarotene]	0.2	0	0
CC(=O)Nc1ccc(C(=O)Nc2ccccc2N)cc1 [Tacedinaline]	0	0	0
O=C(NOC[C@H](O)CO)c1ccc(F)c(F)c1Nc1ccc(I)cc1F	2.3	3.9	11.9
CN(CC(=O)N(Cc1ccc(C2CCCCC2)cc1)c1ccc(C(=O)O)cc1)S(=O)(=O)c1c(F)c(F)c(F)c(F)c1F [SH-4-54]	5.1	3.9	3.7
CNC(=O)c1cc(COc2nnc(Nc3ccc(Cl)cc3)c3ccoc23)ccn1 [Telatinib]	0	0	0
CC[C@@H]1C(=O)N(C)c2cnc(Nc3ccc(C(=O)N[C@H]4CC[C@H](N5CCN(CC6CC6)CC5)CC4)cc3OC)nc2N1C(C)C [Volasertib]	16.6	15.3	17.4
CCC(C)n1ncn(-c2ccc(N3CCN(c4ccc(OCC5COC(Cn6cncn6)(c6ccc(Cl)cc6Cl)O5)cc4)CC3)cc2)c1=O (stereo not given) [Itraconazole]	7.9	7.7	10.7
Cc1nc(=O)c2cc(CN(C)c3ccc(C(=O)N[C@@H](CCC(=O)O)C(=O)O)s3)ccc2[nH]1 [Raltitrexed]	3	3.3	5
C=CCN(/C=C1/C(=O)O[C@H](COC)[C@@]2(C)C1=C(O)C(=O)C1=C2[C@H](OC(C)=O)C[C@]2(C)C(=O)CC[C@@H]12)CC=C [Sonolisib]	0	0	0
CCn1c(-c2nonc2N)nc2cnc(Oc3cccc(NC(=O)c4ccc(OCCN5CCOCC5)cc4)c3)cc21	0.8	2.6	4
C/C(=C\c1csc(C)n1)[C@@H]1C[C@@H]2O[C@]2(C)CCC[C@H](C)[C@H](O)[C@@H](C)C(=O)C(C)(C)[C@@H](O)CC(=O)N1 [Ixabepilone]	5.4	5	5
O[C@H](C[C@H]1c2c(F)cccc2-c2cncn21)[C@H]1CC[C@H](O)CC1 [GDC-0919]	0	0	0
CC/C(=C(\c1ccc(O)cc1)c1ccc(OCCN(C)C)cc1)c1ccccc1 [4-hydroxytamoxifen]	1.2	4.3	5.7
NCC(=O)Nc1ccc(-n2nc(C(F)(F)F)cc2-c2ccc3c(ccc4ccccc43)c2)cc1	0	0	0
Cc1cc(Nc2nc(N[C@@H](C)c3ncc(F)cn3)ncc2Cl)[nH]n1 [AZD1480]	0	0	0.2
Nc1ncn([C@H]2C[C@H](O)[C@@H](CO)O2)c(=O)n1 [Decitabine]	1.1	0	0.6
CNCc1ccc(-c2[nH]c3cc(F)cc4c3c2CCNC4=O)cc1 [Rucaparib]	0	0	0
CNc1nc(-c2ccc3c(N)n[nH]c3c2)cc(N2C[C@@H](C(=O)NC3CCCCC3)CC[C@H]2C)n1	0	0	0

Structure (SMILES)	drug sensitivity score [1]	drug sensitivity score [2]	drug sensitivity score [3]
COc1cc(C)c(/C=C/C(C)=C/C=C/C(C)=C/C(=O)O)c(C)c1C [Acitretin]	3.6	0	0
CCOC(=O)C1=CCCC[C@H]1S(=O)(=O)Nc1ccc(F)cc1Cl [Resatorvid]	0	0	0
S=C(NCc1ccc2c(c1)OCO2)N1CCN(c2ncnc3c2oc2ccccc23)CC1 [Amuvatinib]	2.3	3.1	6
CC(C)Oc1ccc(C(=O)N[C@H](CNC(=O)CN(C)C)Cc2ccc(-c3cn4cccc([C@H](C)O)c4n3)cc2)cc1Cl	10.7	12.8	15.8
O=C(CCCCCCC(=O)Nc1ccccc1)NO [Vorinostat]	7.5	9.8	11.8
COCC1(CO)C(=O)C2CCN1CC2 (stereo not given) [APR-246]	0	0	0
COc1cc2ncnc(Nc3ccc(F)c(Cl)c3)c2cc1NC(=O)/C=C/CN1CCCCC1 [Dacomitinib]	5.3	8.4	19.3
Nc1ccn([C@@H]2O[C@H](CO)[C@@H](O)C2(F)F)c(=O)n1 [Gemcitabine]	2.2	5.5	7.7
CCS(=O)(=O)N1CCN(c2ccc(Nc3ncc(C(N)=O)c(NC4CC4)n3)cc2)CC1 [Cerdulatinib]	0.2	0	0.2
CONC(=O)c1ccccc1Nc1cc(Nc2cc(C)nn2C(C)C)ncc1Cl	0	0	1.2
COCC[n+]1c2c(n(Cc3cnccn3)c1C)C(=O)c1ccccc1C2=O [Sepantronium bromide]	26.6	30.1	34.3
COc1cc(Nc2ncc(F)c(Nc3ccc4c(n3)N(COP(=O)(O)O)C(=O)C(C)(C)O4)n2)cc(OC)c1OC [Fostamatinib]	0.7	1.8	4.6
COc1cc2c(Nc3ccc(Cl)c(Cl)c3F)ncnc2cc1OC[C@@H]1C[C@@H]2CN(C)C[C@@H]2C1 [Tesevatinib]	5.8	8.5	18.9
O=C(O)c1ccc(O)c2ncccc12 [IOX-1]	1.4	1.6	1.7
CCC/C=C/C=C/C(=O)O[C@H]1/C(=C/C(=O)OC)C[C@H]2C[C@H]([C@@H](C)O)OC(=O)C[C@H](O)C[C@@H]3C[C@H](OC(C)=O)C(C)(C)[C@](O)(C[C@@H]4C/C(=C/C(=O)OC)C[C@H](/C=C/C(C)(C)[C@]1(O)O2)O4)O3 [Bryostatin 1]	0	0	0
COc1cc2ncnc(Nc3ccc(F)c(Cl)c3)c2cc1OCCCN1CCOCC1 [Gefitinib]	3.2	1.5	17.9
CNC(=O)c1ccc(N2C(=S)N(c3ccc(C#N)c(C(F)(F)F)c3)C(=O)C2(C)C)cc1F [Enzalutamide]	0	0	0
CC1=C2C[C@H]3[C@@H](CC[C@@H]4C[C@H](NS(C)(=O)=O)CC[C@@]43C)[C@@H]2CC[C@@]2(C1)O[C@@H]1C[C@H](C)CN[C@H]1[C@H]2C [Saridegib]	0	0	0.8
CN1CC[C@H](c2c(O)cc(O)c3c(=O)cc(-c4ccccc4Cl)oc23)[C@H](O)C1 [Alvocidib]	21.5	20.9	18.3
Cn1cc(C2=C(c3cn(C4CCN(Cc5ccccn5)CC4)c4ccccc34)C(=O)NC2=O)c2ccccc21 [Enzastaurin]	0	0	0
Cc1[nH]c2ccccc2c1CCNCc1ccc(/C=C/C(=O)NO)cc1 [Panobinostat]	15.2	12.5	15
O=C(Nc1ccncc1)C(=O)c1cn(Cc2ccc(Cl)cc2)c2ccccc12 [Indibulin]	7.2	0	10.7
